Assay results published in publication PMC6804080, “Benzoxaboroles—Novel Autotaxin Inhibitors” (Molecules, 2019).
Converted amounts (≈) assume the structure as drawn. “And” between values parts separate entries of the source, which are not always exact repeats. Equal values may be shown once.

How the values were obtained:
Autotaxin (ATX) = target: T1, Autotaxin (ATX) (Homo sapiens, UniProt Q13822); assay: biochemical choline detection assay for ATX inhibition, LysoPC substrate; settings: for IC50: mean standard deviation from duplicate experiments; for ATX inhibition, range of activity: in words
T1 construct: we added 10 μL of recombinant ATX (2 ng/mL) in a Tris–HCl buffer
Experimental: All 21 new benzoxaboroles derivatives prepared herein were evaluated for ATX inhibition in vitro using a biochemical choline detection assay, combining elements of assays already described in the literature.
[…] Mother plates with serial dilutions of compounds in pure DMSO were prepared from 10 mM DMSO stock solutions. Storplate-384-deep-well-V plates (Perkin Elmer) were also used for mother plate preparation. Compounds were diluted in a DMSO in a ratio of 1:3. An aliquot of 200 nL of compound solution was transferred from the mother plate to the test plate with a Mosquito nanoliter liquid handling system (TTP labtech). The assay was performed in Spectra-Plate-384 TC, transparent, (Perkin Elmer, Cat#6007658) using a 20 µL assay volume. The total final percentage of DMSO in the test media was 1%. Compounds were tested at 11 consecutive three-fold dilutions starting from 50 µM (final concentrations) in duplicate, covering range of 0.0008–50 μM to determine IC50 values. […] After dispensing of compounds directly to the dry plate, we added 10 μL of recombinant ATX (2 ng/mL) in a Tris–HCl buffer (140 mM NaCl, 1mM MgCl2, 5 mM KCl, 3 mM CaCl2, 1 mg/ml bovin serum albumin (BSA, fatty acid free) and 100 mM Tris–HCl, pH 9). […] The above-described solution with dimethyl sulfoxide but without the test compound was used as a control. LysoPC without ATX was used as a control for the autohydrolysis of LysoPC. After 1.5 h of incubation, 20 μL of stop solution and developer was added {Choline oxidase (1.2 U/mL), Peroxidase (1.2 U/mL), TOOS (2.7 mM), 4-Aminoantipyrine (2.7 mM), and EDTA (50 mM)} to the reaction mixture, and absorbance was measured after 30 min of incubation. The absorbance was measured by using Perkin-Elmer EnVision plate reader (λ = 555 nm). Data were analyzed using GraphPad Prism software. The calculation of IC50 data, curves and quality control (QC) analysis was made by using Excel tools and GraphPadPrism software. Briefly, individual concentration–effect curves were generated by plotting the logarithm of the tested concentration of tested compounds (X) vs. corresponding percentage inhibition values (Y) using a least squares (ordinary) fit. […] QC criteria parameters (Z,’ S:B, ΔmP) were checked for every plate.

[1] = Chrom logD determination by gradient HPLC (CHI); type: physicochemical; settings: pH 7.4, Luna C18 column; for chromatographic logD: reversed-phase HPLC, Phenomenex Luna C18 column
Experimental: clogP values were calculated for all compounds using the Percepta software. Chrom logD was determined experimentally using a procedure described in the supplementary data. Furthermore, the correlation between calculated clogP values and experimentally determined Chrom log D values were explored for molecules containing boron functional groups such as boronic acids and benzoxaboroles.
Chrom logD values were determined from the following equation: Chrom logD = 0.0857 × CHI − 2 [39]. Chromatographic hydrophobic index (CHI) values were determined from the gradient retention times (RT). These values approximately corresponded to the volume percentage of organic component in the mobile phase when the compound elutes. CHI values were determined at pH 7.4. Chromatograms were obtained using on Agilent 1100 Series liquid chromatography system with an HPLC diode-array detector (DAD) coupled with a Micromass Quattro micro atmosphere pressure ionization (API) mass spectrometer. The column used for analyses was Phenomenex Luna C18 (50 × 3 mm, 5 µm, 100 Å). The column was maintained at 25 °C. The flow rate was 1.0 mL/min. The mobile phase was composed of 50 mM ammonium acetate in water at pH 7.4 (solvent A) and acetonitrile (solvent B). The solvent gradient condition was initially 0.5% B, and then it increased linearly to 100% B over 3.0 min, remaining at 100% B for 0.5 min, then decreasing linearly to 0% B over 0.2 min followed by an equilibration period of 1.3 min prior to the next injection. The total experimental duration was 5 min. Injection volume was 2.0 µl. Samples temperature was maintained at 15 °C in the autosampler chamber. A group of ten standard compounds having different CHI values was used for calibration of RP-HPLC [40].

[2] = kinetic solubility, turbidimetric method; type: physicochemical; settings: for solubility kinetic at 1 h: 37 °C, pH 7.4, aqueous buffer, kinetic from dmso stock, Solubility (kinetic solubility range)
Experimental: Turbidimetric solubility allows for a rapid determination of kinetic solubility by using small amounts of the test compound. Assay controls were α-naphtoflavone (low solubility) and sulfaphenazole (expected solubility >100µM). DMSO stock solutions (10 mM) of each compound were first serially diluted 1 in 3 in DMSO and then spiked into an aqueous buffer (100 mM PBS), resulting in 5 following final concentration: 100, 30, 10, 3 and 1 µM (each concentration was tested in duplicate). […] Compound samples were compared to a solvent control in an aqueous buffer (DMSO 1% final concentration), and a significant increase of sample absorbance was considered to have occurred when the absorbance reached a 3-fold standard deviation of the average DMSO absorbance. The calculation of solubility range data was made by Excel tool software. Results are expressed as an estimated solubility range.

[3] = in vitro plasma stability, rat plasma; type: in vitro ADME; settings: after 4 h
Experimental: (§1) The in vitro plasma stability of the test compounds was studied in human and rat plasma with propranolol, benflorex, and eucatropine as control substances. All compounds at final concentrations of 5 μM (0.5% DMSO) were incubated in a phosphate buffer (50 mM, pH 7.4) for 4 h at 37 °C together with plasma. Aliquots were taken at different time points (0, 30, 120 min and 4 h), followed by reaction termination by the addition of CH3CN:CH3OH 2:1 v/v., which contained diclofenac and warfarin as internal standards (IS). Samples were then centrifuged (at 1600 rpm at 4 °C for 30 min), and the resulting supernatants were subjected to LC/MS/MS analysis. Results are expressed as % remaining.

[4] = in vitro plasma stability, human plasma; type: in vitro ADME; settings: after 4 h
Experimental: as §1

[5] = metabolic stability in rat liver microsomes; type: in vitro ADME
Experimental: (§2) Metabolic stability was assessed in rat and human liver microsomes, with testosterone and propranolol as positive controls. All compounds, at a final concentration of 1 μM (0.03% DMSO), were incubated in a phosphate buffer (50 mM, pH 7.4) for 60 min at 37 °C, together with liver microsomes in the absence and presence of NADPH generating system (nicotinamide adenine dinucleotide phosphate (NADP, 2 mM), glucose-6-phosphate (20 mM), glucose-6-phosphate dehydrogenase (6U) and magnesium chloride (2 mM)). Aliquots were taken at different time points (0, 10, 20, 30, 45 and 60 min), followed by reaction termination by addition of CH3CN:CH3OH 2:1 v/v, containing diclofenac as internal standard (IS). Samples were then centrifuged (at 2000 rpm at 4 °C for 30 min), and resulting supernatants were subjected to LC/MS/MS analysis. The in vitro half-life was calculated in GraphPadPrism software from % remaining vs. time regression using non-linear regression fit. In vitro intrinsic clearance, expressed as mL/min/g liver, was determined from in vitro half-life and normalized for the protein concentration in the incubation mixture, assuming a 52.5 mg/g liver.

[6] = metabolic stability in human liver microsomes; type: in vitro ADME
Experimental: as §2

[7] = plasma protein binding, equilibrium dialysis, rat plasma; type: in vitro ADME; settings: pH 7.4, rat plasma, read-out: PPB: fraction bound, rat (converted)
Experimental: (§3) Plasma protein binding was measured using the equilibrium dialysis technique. Positive controls included in this assay were: Acebutolol (low binding) and nicardipine (very high binding). The assay was performed in a 96-well Teflon dialysis unit, where each well consisted of two chambers separated by a dialysis membrane. Plasma (human and rat, commercially obtained from Seralab) spiked with each compound (final concentration: 5 µM, 0.5% DMSO) were added to one chamber, and a blank buffer solution (60 mM Na2HPO4/14 mM KH2PO4/70 mM NaCl; pH 7.4) was added to the other side of the well. Each compound was analyzed in duplicate, for 4 h at 37 °C. After 4 h, both the plasma (free and bound fraction) and buffer (only free fraction) side of the well were sampled, matrix matched, then precipitated with a STOP solution (CH3CN:CH3OH 2:1 v/v, containing diclofenac as internal standard), and centrifuged at 2000 rpm for 30 min (+4 °C). The resulting supernatants were analyzed by LC-MS/MS. The fraction bound was calculated as the concentration difference (analyte vs. internal standard peak area ratio) in the plasma and buffer sides divided by the total concentration in the plasma side. Sampling was also performed from spiked plasma at t = 0 min in order to determine recovery, i.e., % of compound detected at t = 4 h in both the plasma and buffer chambers divided by the compound detected at t = 0 min.

[8] = plasma protein binding, equilibrium dialysis, human plasma; type: in vitro ADME; settings: for fraction unbound at 4 h, 5 µM: pH 7.4, read-out: PPB: fraction bound, human (converted)
Experimental: as §3

[9] = choline release assay using as a substrate

SMILES	IC50 (Autotaxin (ATX); [9]) [µM]	ATX inhibition, range of activity (Autotaxin (ATX))	chromatographic logD [1]	solubility kinetic at 1 h [2] [µM]	PS (plasma stability), rat [3]	PS (plasma stability), human [4] [%remaining]	LMS: predicted in vivo hepatic clearance, rat [5] [%LBF]	LMS: predicted in vivo hepatic clearance, human [6] [%LBF]	fraction unbound at 4 h, 5 µM [7]	fraction unbound at 4 h, 5 µM [8]	IC50 (Autotaxin (ATX); choline release assay using LPC C16:0 as a substrate) [µM]	Chrom logD [1]	Solubility (kinetic solubility range) ([2]; turbidimetric, PBS pH 7.4, after 1h) [µM]	PPB: fraction bound, human [8]
O=C(OCc1cc(Cl)cc(Cl)c1)N1CCN(C2CCN(C(=O)c3ccc4c(c3)B(O)OC4)C2)CC1 (stereo not shown) [Compound 30, (3,5-dichlorophenyl)methyl 4-[1-(1-hydroxy-3H-2,1-benzoxaborole-6-carbonyl)pyrrolidin-3-yl]piperazine-1-carboxylate]	0.18 ± 0.04	nanomolar range	4.52	> 100	64.5 %remaining	66.5	86	82	0.012	0.016	–	–	–	–
O=C(OCc1cc(Cl)cc(Cl)c1)N1CCN(C2CCN(C(=O)c3cccc4c3B(O)OC4)C2)CC1 (stereo not shown) [Compound 31, (3,5-dichlorophenyl)methyl 4-[1-(1-hydroxy-3H-2,1-benzoxaborole-7-carbonyl)pyrrolidin-3-yl]piperazine-1-carboxylate]	7.5 ± 5.6	–	4.63	> 100	67.9 %remaining	71.6	86	85	–	0.022	–	–	–	–
O=C(OCc1cc(Cl)cc(Cl)c1)N1CCN(C2CCN(C(=O)c3ccc4c(c3)B(O)OC4)CC2)CC1 [Compound 34]	–	nanomolar range	–	–	61.6 %remaining	70.6	77	89	–	–	0.92 ± 0.82	5.49	>100	NA ^e/99.2%
O=C(OCc1cc(Cl)cc(Cl)c1)N1CCN(C2CCN(C(=O)c3ccc4c(c3)COB4O)CC2)CC1 [Compound 35, (3,5-dichlorophenyl)methyl 4-[1-(1-hydroxy-3H-2,1-benzoxaborole-5-carbonyl)-4-piperidyl]piperazine-1-carboxylate]	1.8 ± 1.75	–	4.58	> 100	63.0 %remaining	59.2	86	89	–	0.017	–	–	–	–

Other lines, results leading:

IC50 (Autotaxin (ATX); [9]) [µM]	ATX inhibition, range of activity (Autotaxin (ATX))	chromatographic logD [1]	solubility kinetic at 1 h [2] [µM]	PS (plasma stability), rat [3]	PS (plasma stability), human [4] [%remaining]	LMS: predicted in vivo hepatic clearance, rat [5] [%LBF]	LMS: predicted in vivo hepatic clearance, human [6] [%LBF]	fraction unbound at 4 h, 5 µM [7]	fraction unbound at 4 h, 5 µM [8]	IC50 (Autotaxin (ATX); choline release assay using LPC C16:0 as a substrate) [µM]	Chrom logD [1]	Solubility (kinetic solubility range) ([2]; turbidimetric, PBS pH 7.4, after 1h) [µM]	PPB: fraction bound, human [8]	SMILES
0.13 ± 0.12	nanomolar range	4.58	30 to 100 (≈ 15.1 to 50.4 µg/mL)	71.2 %remaining and 72.2 %remaining	79.1	62	85	0.016	0.021	–	–	–	–	O=C(OCc1cc(Cl)cc(Cl)c1)N1CCN(C2CN(C(=O)c3ccc4c(c3)B(O)OC4)C2)CC1 [Compound 37, (3,5-dichlorophenyl)methyl 4-[1-(1-hydroxy-3H-2,1-benzoxaborole-6-carbonyl)azetidin-3-yl]piperazine-1-carboxylate]
2 ± 1.73	–	4.46	30 to 100 (≈ 15.1 to 50.4 µg/mL)	60.1 %remaining	79.1	82	79	–	–	–	–	–	–	O=C(OCc1cc(Cl)cc(Cl)c1)N1CCN(C2CN(C(=O)c3ccc4c(c3)COB4O)C2)CC1 [Compound 38, (3,5-dichlorophenyl)methyl 4-[1-(1-hydroxy-3H-2,1-benzoxaborole-5-carbonyl)azetidin-3-yl]piperazine-1-carboxylate]
